The conditions of series [1]: rat, in vivo, cited from earlier work.
The test system of series [2] is mice. Set-up: species or system Kunming mice (ICR mice for intranasal treatment). The following applies: mouse, in vivo.
Series [3] deals with mice. Further details: species or system Kunming mice. The following applies: mouse, in vivo, iv.
For series [4] the following is noted: in vivo; cited from earlier work.
For series [5], the system named is mice. The conditions noted are these: mouse, in vivo; SEM.

As to `CSCC[C@@H]1NC(=O)[C@H](CC(C)C)NC(=O)[C@H](CCCNC(=N)N)NC(=O)[C@H](CO)NC(=O)[C@@H]2CSSC[C@@H]3NC(=O)[C@H](CO)NC(=O)CNC(=O)[C@H]([C@@H](C)O)NC(=O)[C@H](CSSC[C@H](N)C(=O)N[C@@H](CCCCN)C(=O)NCC(=O)N[C@@H](CCCCN)C(=O)NCC(=O)N[C@@H](C)C(=O)N[C@@H](CCCCN)C(=O)N2)NC(=O)[C@H](CSSC[C@@H](C(N)=O)NC(=O)[C@H](CCCCN)NC(=O)CNC(=O)[C@H](CO)NC(=O)[C@H](CCCNC(=N)N)NC3=O)NC(=O)[C@H](CC(=O)O)NC(=O)[C@H](Cc2ccc(O)cc2)NC1=O` [MVIIA, ω-Conotoxin MVIIA], in series [1] (iv), the “AUC0-6 in CSF” value is 4.98 ± 0.97 µg·min/mL, the “Cmax in CSF” value is reported as 37.78 ± 6.8 ng/mL and the “Tmax in CSF” value was ~ 2 h. Further, the “bioavailability in CSF following intranasal versus intravenous administration” value in series [1] is listed as “two fold greater”. Moreover, in the series on mice [2], the “time after which the effect disappeared” value was at most 4 h and the “time of maximal antinociceptive effect” value came out at 1 h. Further, the antinociceptive effect entry with mice [2] (iv) is listed as “no effect”. Moreover, in the series with mice [3], the “effect on writhing numbers” value is given as “failed to attenuate writhing numbers”. Moreover, in series [4], the “antinociceptive potency relative to intrathecal morphine” value is listed as 100 times and the “potency relative to morphine” value is reported as 100 times. The “stay time on rotarod” value in the series with mice [5] turned out to be 74.5 ± 20.28 s.

The values above are taken from publication PMC6562543 (Marine Drugs, 2019).
